# Read-outs that look alike come from different tables or passages of the source.
# Test system: Methicillin-resistant Staphylococcus aureus
# Conditions: 0.005% PHMB versus no PHMB
# Method: This Example utilized 1.5-milliliter tubes containing a 1-milliliter blend of phosphate-buffered saline (pH 7.2) and 5% (w/v) bovine serum albumin soil. The tubes were placed in electric heat blocks set for 22° C., 30° C., 40° C. and 50° C., respectively. The tubes remained in the electric heat blocks for approximately 10 minutes.
# After 10 minutes, 0.005% (by weight) active polyhexamehtylene biguanide (PHMB) (commercially available as Cosmocil® CQ from Arch Biocides, Inc., United Kingdom) was added to two tubes at each temperature level. Duplicate tubes without PHMB at each temperature were also made.
# The tubes were then vortexed and Methicillin-resistant Staphylococcus aureus (approximately 1×10^5 colony forming units (CFU)) was then added to each tube. All of the tubes were then placed back into the heat blocks at their respective temperatures.
# Following a 10-minute contact time, 0.1 milliliters of each sample was transferred to 0.9 milliliters letheen broth to neutralize the PHMB activity. The letheen samples were then plated in duplicate on Tryptic Soy agar plates using a WASP2 spiral plater (commercially available from Don Whitley Scientific, Ltd., Yorkshire, United Kingdom). The plates were inverted and incubated at 37±2° C. for 48 hours.
# After 48 hours, the plates were evaluated using a total plate count to determine the biocidal efficacy of each sample.
substance,measurement,setting,value
polyhexamethylene biguanide [PHMB],LOG10 Reduction,22° C.,2.1
same,LOG10 Reduction,30° C.,2.8
same,LOG10 Reduction,40° C.,3.5
same,LOG10 Reduction,50° C.,>3.5
